# Test results reported in US11690803B2, “Tumor pH-shiftable coating and the nucleus-directed nanoparticles facilitate the targeted chemotherapy and gene therapy against multiple cancers and use thereof” (National Yang Ming Chiao Tung University, priority 2019, dated 2023).
# Key:
# [1] = Biosafety evaluation by serum biochemical tests; assay type: in vivo; settings: tumor-bearing mice, 48 h after last treatment
# Protocol: Tumor-bearing mice were treated as described above. Blood samples were taken from the orbital sinus of mice at 48 h after the final injection. The harvested samples were put at 37° C. to induce the clotting reaction and centrifuged for 15 min. The resultant serum samples were stored at −80° C. until further analysis. The functions of liver, kidney and heart were examined by detecting the serum levels of glutamate pyruvate transaminase (GPT), creatinine (CRE), and creatine kinase-MB (CK-MB) using the corresponding activity assay kits (Fujifilm, Tokyo, Japan) according to the manufacturer's instruction using a clinical dry chemistry analyzer (Fuji Dri-Chem 7000V, Fujifilm Corporation, Tokyo, Japan).
# Data shown indicate the mean±SD of four experiments.
# [2] = system: RBCs from rat; assay: Hemolysis assay; assay type: cell-based; settings: 37° C., 24 h, Triton X as positive control
# Protocol: 7×10^7 RBCs from rat were separated by centrifugation of whole blood. The supernatant containing plasma and platelets were removed. The pellets were washed by PBS until the supernatant was clear. Different formulations were diluted to a required concentration and added to the tubes containing 1 mL diluted RBCs. The cell suspension was mixed gently and incubated at 37° C. for 24 h. Triton X-100 was served as a positive control. Hemoglobin released from RBCs was measured spectrophotometrically. The concentration of the formed product was measured at 540 nm using an ELISA reader (TECAN, Mannedorf, Switzerland) to qualify the toxicity of liposomes to RBCs.
Compound,"Serum levels of GPT or GOT, CRE, and CK-MB or LDH [1]",Hemolysis [2]
"O=C1[O][Pt]2([NH][C@@H]3CCCC[C@H]3[NH]2)[O]C1=O [Oxa, oxaliplatin]",remarkably escalated,
Triton X-100,,100%
